# According to ChEMBL document CHEMBL1201862, “PubChem BioAssay data set” (2004):
# Active and inactive are the calls of the source.
# Key:
# [1] = Dd2 parasite growth inhibition in erythrocytes – SYBR Green, dry powder samples, set 9, dose response (AID 1159568); assay type: functional, cell-based
# [2] = Luminescence Cell-Based Dose Response HTS to Identify Activators of Luciferase Translation or Activity in H4 […] Cells. [Related pubchem assays: 1829 (Project Summary), 1814 (Primary HTS)]; assay type: functional
# [3] = Luminescence Cell-Based Dose Response to Identify Activators of 5'UTR Stem-Loop Driven Prion Protein mRNA Translation in H4-C Neuroglioblastoma Cells. [Related pubchem assays: 1829 (Project Summary), 1814 (Primary HTS)]; assay type: functional
# [4] = Luminescence Cell-Based Dose Confirmation to Identify Activators of 5'UTR Stem-Loop Driven Alpha-Synuclein mRNA Translation in H4 Neuroglioblastoma Cells. [Related pubchem assays: 1829 (Project Summary), 1814 (Primary HTS)]; assay type: functional
# [5] = Luminescence Cell-Based Dose Response to Identify Activators of Luciferase Translation or Activity in H4-C Neuroglioblastoma Cells. [Related pubchem assays: 1829 (Project Summary), 1814 (Primary HTS)]; assay type: functional
# [6] = target: T1, Rac GTPase-activating protein 1 (Homo sapiens, UniProt Q9H0H5); test: blockers of MgcRacGAP-driven Rac1 GTP hydrolysis – biochemical, ADP Hunter fluorescence, primary and confirmatory, confirmation (AID 624330); assay type: functional
# T1 sequence (Q9H0H5 whole entry): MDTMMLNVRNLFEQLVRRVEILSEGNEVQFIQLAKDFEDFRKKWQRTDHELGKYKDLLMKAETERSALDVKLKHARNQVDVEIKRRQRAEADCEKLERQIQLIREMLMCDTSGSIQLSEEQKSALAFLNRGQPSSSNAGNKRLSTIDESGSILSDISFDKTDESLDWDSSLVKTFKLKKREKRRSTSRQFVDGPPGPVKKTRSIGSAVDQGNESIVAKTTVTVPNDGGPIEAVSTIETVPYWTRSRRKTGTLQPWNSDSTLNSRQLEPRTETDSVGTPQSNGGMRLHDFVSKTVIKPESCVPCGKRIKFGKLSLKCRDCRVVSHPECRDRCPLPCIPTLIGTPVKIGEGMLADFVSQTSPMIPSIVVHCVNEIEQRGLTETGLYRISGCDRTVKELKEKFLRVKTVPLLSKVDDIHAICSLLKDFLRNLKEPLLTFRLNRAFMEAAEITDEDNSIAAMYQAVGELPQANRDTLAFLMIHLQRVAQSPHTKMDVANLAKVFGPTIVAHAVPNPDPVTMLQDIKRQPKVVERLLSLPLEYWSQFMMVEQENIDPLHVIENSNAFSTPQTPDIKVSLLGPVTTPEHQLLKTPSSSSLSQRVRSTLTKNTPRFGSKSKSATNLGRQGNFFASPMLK
# Large T antigen = Large T antigen (Simian virus 40, UniProt P03070); assay type: functional, Betapolyomavirus macacae;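 note: Confirmatory-stage PubChem screen for compounds that inhibit SV40 T antigen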
# Sequence of Large T antigen (P03070 whole entry): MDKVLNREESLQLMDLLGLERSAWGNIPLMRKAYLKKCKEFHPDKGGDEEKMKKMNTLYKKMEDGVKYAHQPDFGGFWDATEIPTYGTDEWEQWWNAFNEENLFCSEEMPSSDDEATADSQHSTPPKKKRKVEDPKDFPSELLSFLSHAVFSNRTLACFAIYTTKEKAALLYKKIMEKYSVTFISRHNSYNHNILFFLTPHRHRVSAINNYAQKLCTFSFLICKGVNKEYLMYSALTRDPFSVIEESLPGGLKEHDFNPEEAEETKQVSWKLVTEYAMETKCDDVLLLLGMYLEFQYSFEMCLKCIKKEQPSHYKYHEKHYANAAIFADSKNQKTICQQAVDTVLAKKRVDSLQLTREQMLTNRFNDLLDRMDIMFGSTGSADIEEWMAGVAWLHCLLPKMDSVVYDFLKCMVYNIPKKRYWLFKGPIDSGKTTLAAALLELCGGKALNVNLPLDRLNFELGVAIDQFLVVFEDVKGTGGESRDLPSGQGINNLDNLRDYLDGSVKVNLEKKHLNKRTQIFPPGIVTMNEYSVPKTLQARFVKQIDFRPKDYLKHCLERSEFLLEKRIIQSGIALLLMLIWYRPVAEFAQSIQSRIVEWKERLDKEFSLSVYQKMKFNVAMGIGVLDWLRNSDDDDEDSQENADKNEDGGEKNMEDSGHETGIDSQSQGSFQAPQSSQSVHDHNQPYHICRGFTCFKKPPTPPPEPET
# [7] = viability loss in HeLa cells – cytotoxicity control for MgcRacGAP inhibitor project, dose response (AID 624300); assay type: functional
# [8] = viability loss in HepG2 hepatoma cells – cell-based, ATP luminescence, cherry-pick, activator set 2, cytotoxicity control, dose response (AID 1053143); assay type: functional
# [9] = Luminescence Cell-Based Dose Confirmation HTS to Identify Inhibitors of Platelet Dense Granule Release. [Related pubchem assays: 1663 (Primary HTS), 1678 (Summary of Project)]; assay type: functional
# [10] = target: Luciferin 4-monooxygenase (Photinus pyralis, UniProt P08659); test: inhibition of purified Photinus pyralis luciferase – biochemical, luminescence, dose response (AID 1891)
# Sequence of Luciferin 4-monooxygenase (P08659 whole entry): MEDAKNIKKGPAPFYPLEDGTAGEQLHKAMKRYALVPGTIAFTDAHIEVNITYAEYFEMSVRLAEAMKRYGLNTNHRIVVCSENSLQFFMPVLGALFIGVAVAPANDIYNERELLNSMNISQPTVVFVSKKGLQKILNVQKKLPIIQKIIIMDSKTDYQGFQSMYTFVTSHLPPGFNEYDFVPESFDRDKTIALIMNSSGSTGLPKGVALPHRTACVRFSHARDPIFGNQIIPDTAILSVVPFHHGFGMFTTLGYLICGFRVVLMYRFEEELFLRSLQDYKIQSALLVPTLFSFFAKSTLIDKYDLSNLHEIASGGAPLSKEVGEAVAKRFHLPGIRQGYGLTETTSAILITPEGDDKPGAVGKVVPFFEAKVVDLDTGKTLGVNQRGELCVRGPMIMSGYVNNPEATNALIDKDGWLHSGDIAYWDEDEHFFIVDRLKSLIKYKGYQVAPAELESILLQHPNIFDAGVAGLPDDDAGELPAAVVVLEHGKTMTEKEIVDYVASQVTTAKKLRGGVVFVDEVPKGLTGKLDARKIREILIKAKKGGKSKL
# [11] = target: T2, Corticotropin-releasing factor receptor 2/Corticotropin-releasing factor-binding protein (Homo sapiens, UniProt P24387+Q13324); test: activators of CRF receptor 2 with binding protein – uHTS hits, confirmation (AID 602473); assay type: functional; settings: read-out: EC50_Mean
# T2 sequence (Q13324 whole entry): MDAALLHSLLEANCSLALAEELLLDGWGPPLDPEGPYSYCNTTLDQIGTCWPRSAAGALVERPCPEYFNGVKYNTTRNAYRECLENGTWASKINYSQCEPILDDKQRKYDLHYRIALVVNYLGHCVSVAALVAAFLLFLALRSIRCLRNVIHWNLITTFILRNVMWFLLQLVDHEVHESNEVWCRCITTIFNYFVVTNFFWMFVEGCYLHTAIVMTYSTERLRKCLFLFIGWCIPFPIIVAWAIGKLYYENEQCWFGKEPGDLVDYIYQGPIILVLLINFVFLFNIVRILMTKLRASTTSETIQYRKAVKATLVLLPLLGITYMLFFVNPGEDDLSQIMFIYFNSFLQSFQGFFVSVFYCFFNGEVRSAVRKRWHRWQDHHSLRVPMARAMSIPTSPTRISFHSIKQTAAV
# T2 sequence (P24387 whole entry): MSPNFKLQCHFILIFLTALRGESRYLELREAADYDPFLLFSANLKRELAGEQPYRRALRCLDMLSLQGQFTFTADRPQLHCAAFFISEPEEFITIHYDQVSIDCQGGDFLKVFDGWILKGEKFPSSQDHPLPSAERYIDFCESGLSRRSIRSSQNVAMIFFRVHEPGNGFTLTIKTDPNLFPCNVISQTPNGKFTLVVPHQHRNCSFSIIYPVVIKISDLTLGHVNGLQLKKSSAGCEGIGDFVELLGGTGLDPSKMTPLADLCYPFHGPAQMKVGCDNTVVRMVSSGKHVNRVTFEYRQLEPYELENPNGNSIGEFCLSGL
# [12] = viability loss in THP-1 monocytes – THP-1 cells, cytotoxicity control for Vif-APOBEC3G degradation inhibitor project, dose response (AID 1117359); assay type: functional; settings: THP-1
# [13] = target: T2, Corticotropin-releasing factor receptor 2/Corticotropin-releasing factor-binding protein; test: Dose Response confirmation of uHTS hits for small molecule antagonists of the CRF-binding protein and CRF-R2 receptor complex.; assay type: functional; settings: read-out: IC50_Mean
# [14] = target: T3, Mannose-6-phosphate isomerase (Homo sapiens, UniProt P34949); test: MPI inhibition at elevated mannose 6-phosphate – biochemical, fluorescence intensity, high mannose 6-phosphate, primary screen (AID 1220)
# T3 sequence (P34949 whole entry): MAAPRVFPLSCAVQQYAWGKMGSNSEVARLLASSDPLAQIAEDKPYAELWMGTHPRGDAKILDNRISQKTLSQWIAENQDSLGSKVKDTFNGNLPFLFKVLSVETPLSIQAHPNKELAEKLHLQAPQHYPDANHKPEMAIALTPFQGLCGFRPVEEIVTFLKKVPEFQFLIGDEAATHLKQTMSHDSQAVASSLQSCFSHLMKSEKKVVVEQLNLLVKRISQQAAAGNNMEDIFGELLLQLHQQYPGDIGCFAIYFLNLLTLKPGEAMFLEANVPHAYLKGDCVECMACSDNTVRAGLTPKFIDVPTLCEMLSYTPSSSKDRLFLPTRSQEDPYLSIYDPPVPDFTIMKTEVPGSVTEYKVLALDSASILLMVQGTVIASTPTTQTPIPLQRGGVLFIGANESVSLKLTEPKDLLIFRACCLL
# [15] = target: Induced myeloid leukemia cell differentiation protein Mcl-1 (Homo sapiens, UniProt Q07820); assay type: functional
# Sequence of Induced myeloid leukemia cell differentiation protein Mcl-1 (Q07820 whole entry): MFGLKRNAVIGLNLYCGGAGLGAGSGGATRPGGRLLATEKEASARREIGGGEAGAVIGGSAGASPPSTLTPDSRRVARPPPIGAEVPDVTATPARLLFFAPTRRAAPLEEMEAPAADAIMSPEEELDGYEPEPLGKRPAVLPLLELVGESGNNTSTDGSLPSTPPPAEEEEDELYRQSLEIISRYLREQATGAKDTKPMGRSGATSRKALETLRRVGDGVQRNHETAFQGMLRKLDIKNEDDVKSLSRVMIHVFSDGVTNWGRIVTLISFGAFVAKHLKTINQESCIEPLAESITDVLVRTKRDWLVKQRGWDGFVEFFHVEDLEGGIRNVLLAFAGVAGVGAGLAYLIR
# [16] = target: Mitogen-activated protein kinase 10 (Homo sapiens, UniProt P53779); test: Dose response biochemical screening assay for inhibitors of c-Jun N-Terminal Kinase 3 (JNK3). [Related pubchem assays: 746 ]
# Sequence of Mitogen-activated protein kinase 10 (P53779 whole entry): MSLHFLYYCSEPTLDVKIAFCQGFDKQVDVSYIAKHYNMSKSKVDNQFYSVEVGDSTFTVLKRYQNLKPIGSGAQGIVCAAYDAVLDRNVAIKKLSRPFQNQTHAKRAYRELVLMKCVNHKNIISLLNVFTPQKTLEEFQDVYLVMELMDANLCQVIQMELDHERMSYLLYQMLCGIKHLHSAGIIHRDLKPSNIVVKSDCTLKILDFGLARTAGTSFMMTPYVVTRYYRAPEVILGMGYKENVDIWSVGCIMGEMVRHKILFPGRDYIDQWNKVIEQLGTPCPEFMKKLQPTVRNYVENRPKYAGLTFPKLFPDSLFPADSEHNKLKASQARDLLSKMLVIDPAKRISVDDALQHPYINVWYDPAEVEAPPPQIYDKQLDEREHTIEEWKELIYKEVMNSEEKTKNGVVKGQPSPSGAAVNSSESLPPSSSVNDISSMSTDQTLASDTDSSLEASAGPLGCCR
compound,measurement,setting,value
O=C(Nc1cccc(F)c1)N1CCCCN2[C@H](CO)[C@@H](c3ccc(C#Cc4cccnc4)cc3)[C@@H]2C1,AC50,[1],2.58 µM (active)
COc1cccc(COC(=O)Nc2ccccc2F)c1,EC50,[2],< 0.1 µM (inconclusive)
same,EC50,[3],0.301 µM (active)
same,EC50,[4],0.456 µM (active)
same,EC50,[5],0.344 µM (active)
N#Cc1cccc(-c2ccc3c(c2)[C@H]2[C@H](CCN2S(=O)(=O)c2ccc(F)cc2)[C@@H](CO)N3)c1,AC50,[1],8.37 µM (active)
Oc1ccc(/C=N/Nc2nccnc2Cl)cc1,IC50,[6],16.3 µM (active)
same,IC50,Large T antigen,6.32 µM (active)
same,CC50,[7],46.1 µM (active)
same,AC50,[8],13.7 µM (active)
same,EC50,[9],0.138 µM (active)
same,EC50,[10],1.12 µM (active)
Cc1ccc(Nc2ncnc(-n3cccc3)n2)cc1Cl,AC50,[8],> 52 µM (inactive)
CN(C)CCNC(=O)C(=O)c1c(-c2ccccc2)cc2ccccn12,EC50,[11],> 53 µM (inactive)
same,CC50,[12],> 40 µM (active)
same,IC50,[13],> 47.1 µM (inactive)
COc1ccc2c3c([nH]c2c1)[C@H](CO)N(S(C)(=O)=O)CC31CCN(C(=O)Nc2ccccc2)CC1,AC50,[1],0.145 µM (active)
CCOC(=O)c1c(C)oc2c1c(CN1CCN(C(=O)OCC)CC1)c(O)c1ccccc12,IC50,[14],> 50 µM (not active)
same,IC50,[15],3.95 µM (active)
CN=c1ccccc(-c2ccc3cc4c(cc3n2)OCO4)c1O,CC50,[12],> 40 µM (active)
CNC(=O)c1[nH]cnc1C(=O)Nc1cccc(OC)c1,IC50,[16],50.1 µM (not active)
COc1ccc(C(C)=O)cc1COC(=O)c1cc(C)oc1C,IC50,[16],61.8 µM (not active)
